What follows are compounds tested against hcGAS (Homo sapiens, UniProt Q8N884) (assay: hcGAS LCMS assay (direct measurement of cGAMP production)). Details: 0.5 nM hcGAS, 100 μM ATP, 100 μM GTP, 25 nM dsDNA, 4 h incubation.
Type: biochemical
Experimental: cGAS catalyzes the cyclization of ATP and GTP to produce cGAMP, which is the activating ligand of STING. Human cGAS (hcGAS) inhibition can thus be quantified by measuring how much cGAMP is formed either indirectly, by monitoring ATP-depletion as in the hcGAS Kinase-Glo assay (as described below), or directly, such as using the hcGAS LCMS assay (as described below).
Compounds were tested for their h-cGAS inhibition activity using direct measurement of cGAMP production by LC/MS. Briefly, compounds were incubated with enzyme and substrates for 4 hours (see Table C), before the reaction was stopped with 3 volumes of 70/30 Acetonitrile/H2O mix containing 0.15 mM cGAMP-^13C10^5N5 as internal standard and mixed for […]. After centrifugation (3700 rpm, 10 min, 10° Celsius), […] of each reaction was collected and mixed to equal volume of Acetonitrile. Samples were then analyzed on Qexective (Column: XBridge BEH Amide Column, 130 Å, 3.5 μm, 3 mm×50 mm, Mobile phase A: 10 mM Ammonium acetate in 95/5% H2O/Acetonitrile (0.5% DMSO), Mobile phase B: Acetonitrile (0.5% DMSO).
The results of the assay, expressed as IC50 values, are reported in Table D with the following designations: A represents an IC50 value<0.005 μM; B represents an IC50 value≥0.005 μM and <0.02 μM, C represents an IC50 value≥0.02 μM and <0.06 μM; D represents an IC50 value≥0.06 and <0.2 μM; E represents an IC50 value≥0.2.

hcGAS, sequence (Q8N884 whole entry): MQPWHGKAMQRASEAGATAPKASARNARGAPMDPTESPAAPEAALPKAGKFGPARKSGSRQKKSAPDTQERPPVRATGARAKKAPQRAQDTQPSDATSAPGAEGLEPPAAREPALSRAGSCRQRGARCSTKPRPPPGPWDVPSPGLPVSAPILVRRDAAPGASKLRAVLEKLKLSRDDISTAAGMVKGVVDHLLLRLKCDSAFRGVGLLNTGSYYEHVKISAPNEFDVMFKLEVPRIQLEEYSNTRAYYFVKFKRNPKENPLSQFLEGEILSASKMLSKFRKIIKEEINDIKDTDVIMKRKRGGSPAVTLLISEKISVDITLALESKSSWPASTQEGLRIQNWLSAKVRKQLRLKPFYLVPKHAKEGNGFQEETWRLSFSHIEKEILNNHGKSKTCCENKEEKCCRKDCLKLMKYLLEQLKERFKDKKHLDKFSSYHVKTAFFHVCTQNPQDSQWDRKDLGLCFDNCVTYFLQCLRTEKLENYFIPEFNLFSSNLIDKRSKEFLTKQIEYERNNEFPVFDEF

| SMILES | IC50 [nM] |
| --- | --- |
| COc1c(NC2CC3(COC3)C2)cc(C(=O)Nc2nnc(-n3nccc3C)s2)oc1=O [Compound 50, 4-((2-oxaspiro[3.3]heptan-6-yl)amino)-3-methoxy-N-(5-(5-methyl-1H-pyrazol-1-yl)-1,3,4-thiadiazol-2-yl)-2-oxo-2H-pyran-6-carboxamide] | 60 to 200 |
| COc1c(N2C[C@@H](OC)CC2=O)cc(C(=O)Nc2nnc(-n3nccc3C)s2)oc1=O [Compound 155, (S)-3-methoxy-4-(4-methoxy-2-oxopyrrolidin-1-yl)-N-(5-(5-methyl-1H-pyrazol-1-yl)-1,3,4-thiadiazol-2-yl)-2-oxo-2H-pyran-6-carboxamide] | 5 to 20 |
| CC[C@@H](COC)Nc1cc(C(=O)Nc2nnc(-n3nccc3C)s2)oc(=O)c1OC (single isomer, unassigned) [192*] | 5 to 20 |
| COc1c(N[C@@H]2CCC[C@@H]2OCC(F)F)cc(C(=O)Nc2nnc(-n3nccc3C)s2)oc1=O [Compound 171, 4-(((1R, 2S)-2-(2,2-difluoroethoxy)cyclopentyl)amino)-3-methoxy-N-(5-(5-methyl-1H-pyrazol-1-yl)-1,3,4-thiadiazol-2-yl)-2-oxo-2H-pyran-6-carboxamide] | 5 to 20 |
| COCCNc1cc(C(=O)Nc2nnc(-c3sccc3C#N)s2)oc(=O)c1OC [Compound 145, N-(5-(3-cyanothiophen-2-yl)-1,3,4-thiadiazol-2-yl)-3-methoxy-4-((2-methoxyethyl)amino)-2-oxo-2H-pyran-6-carboxamide] | ≥ 200 |
| COc1c(N[C@H]2CCCC[C@@H]2OC)cc(C(=O)Nc2nnc(-n3nccc3C)s2)oc1=O [Compound 70, 3-methoxy-4-(((1S,2S)-2-methoxycyclohexyl)amino)-N-(5-(5-methyl-1H-pyrazol-1-yl)-1,3,4-thiadiazol-2-yl)-2-oxo-2H-pyran-6-carboxamide] | 5 to 20 |
| COc1c(N2C[C@H](OC)CC2=O)cc(C(=O)Nc2nnc(-n3nccc3C)s2)oc1=O [Compound 154, (R)-3-methoxy-4-(4-methoxy-2-oxopyrrolidin-1-yl)-N-(5-(5-methyl-1H-pyrazol-1-yl)-1,3,4-thiadiazol-2-yl)-2-oxo-2H-pyran-6-carboxamide] | 20 to 60 |
| COc1c(NC[C@H]2CCCO2)cc(C(=O)Nc2nnc(-n3nccc3C)s2)oc1=O [Compound 20, (R)-3-methoxy-N-(5-(5-methyl-1H-pyrazol-1-yl)-1,3,4-thiadiazol-2-yl)-2-oxo-4-(((tetrahydrofuran-2-yl)methyl)amino)-2H-pyran-6-carboxamide] | 20 to 60 |
| COC[C@@H](Nc1cc(C(=O)Nc2nnc(-n3nccc3C)s2)oc(=O)c1OC)c1ccccc1 [Compound 49, (S)-3-methoxy-4-((2-methoxy-1-phenylethyl)amino)-N-(5-(5-methyl-1H-pyrazol-1-yl)-1,3,4-thiadiazol-2-yl)-2-oxo-2H-pyran-6-carboxamide] | 20 to 60 |
| COCCOc1c(N[C@@H]2CCC[C@@H]2O)cc(C(=O)Nc2nnc(-c3c(Cl)ccn3C)s2)oc1=O [Compound 86, N-(5-(3-chloro-1-methyl-1H-pyrrol-2-yl)-1,3,4-thiadiazol-2-yl)-4-(((1R,2S)-2-hydroxycyclopentyl)amino)-3-(2-methoxyethoxy)-2-oxo-2H-pyran-6-carboxamide] | < 5 |
| COc1c(N[C@@H]2CC[C@H](OC)C2)cc(C(=O)Nc2nnc(-n3nccc3C)s2)oc1=O (single isomer, unassigned) [125*] | 5 to 20 |
| COCCNc1cc(C(=O)Nc2nnc(-c3cscc3C#N)s2)oc(=O)c1OC [Compound 138, N-[5-(4-cyanothiophen-3-yl)-1,3,4-thiadiazol-2-yl]-5-methoxy-4-[(2-methoxyethyl)amino]-6-oxopyran-2-carboxamide] | ≥ 200 |
| COC[C@@H](Nc1cc(C(=O)Nc2nnc(-n3nccc3C)s2)oc(=O)c1OC)C1CC1 (single isomer, unassigned) [Compound 22*] | < 5 |
| COCC1(Nc2cc(C(=O)Nc3nnc(-n4nccc4C)s3)oc(=O)c2OC)CCCC1 [Compound 152, 3-methoxy-4-((1-(methoxymethyl)cyclopentyl)amino)-N-(5-(5-methyl-1H-pyrazol-1-yl)-1,3,4-thiadiazol-2-yl)-2-oxo-2H-pyran-6-carboxamide] | 5 to 20 |
| COC[C@@H](Nc1cc(C(=O)Nc2nnc(-n3nccc3C)s2)oc(=O)c1OC)c1ccccc1OC (single isomer, unassigned) [199*] | < 5 |
| COc1c(N[C@H]2COC[C@@H]2OC)cc(C(=O)Nc2nnc(-n3nccc3C)s2)oc1=O [Compound 13, 3-methoxy-4-(((3S,4R)-4-methoxytetrahydrofuran-3-yl)amino)-N-(5-(5-methyl-1H-pyrazol-1-yl)-1,3,4-thiadiazol-2-yl)-2-oxo-2H-pyran-6-carboxamide] | 5 to 20 |
| COc1c(N[C@H]2CC[C@H]2O)cc(C(=O)Nc2nnc(-c3c(Cl)ccn3C)s2)oc1=O (single isomer, unassigned) [Compound 53] | < 5 |
| COc1c(NCCO[C@@H]2CCOC2)cc(C(=O)Nc2nnc(-n3nccc3C)s2)oc1=O [Compound 169, 5-methoxy-N-[5-(5-methylpyrazol-1-yl)-1,3,4-thiadiazol-2-yl]-6-oxo-4-({2-[(3R)-oxolan-3-yloxy]ethyl}amino)pyran-2-carboxamide] | ≥ 200 |
| COc1c(N[C@@H]2CCC[C@@H]2OC)cc(C(=O)Nc2nnc(-c3c(Cl)ccn3C)s2)oc1=O (single isomer, unassigned) [48*] | 5 to 20 |

Other lines, results leading:

| IC50 [nM] | SMILES |
| --- | --- |
| 5 to 20 | COCCNc1cc(C(=O)Nc2nnc(-n3nccc3N)s2)oc(=O)c1OC [Compound 205, N-(5-(5-amino-1H-pyrazol-1-yl)-1,3,4-thiadiazol-2-yl)-3-methoxy-4-((2-methoxyethyl)amino)-2-oxo-2H-pyran-6-carboxamide] |
| 5 to 20 | COc1c(N[C@@H]2CCC[C@@H]2O)cc(C(=O)Nc2nnc(-c3c(Cl)ccn3C)s2)oc1=O [Compound 197, N-(5-(3-chloro-1-methyl-1H-pyrrol-2-yl)-1,3,4-thiadiazol-2-yl)-4-(((1R,2S)-2-hydroxycyclopentyl)amino)-3-methoxy-2-oxo-2H-pyran-6-carboxamide] |
| < 5 | COc1c(N[C@@H]2CCCCC[C@@H]2O)cc(C(=O)Nc2nnc(-n3nccc3C)s2)oc1=O (racemic) [Rac-26, 4-(((cis)-2-hydroxycycloheptyl)amino)-3-methoxy-N-(5-(5-methyl-1H-pyrazol-1-yl)-1,3,4-thiadiazol-2-yl)-2-oxo-2H-pyran-6-carboxamide] |
| 5 to 20 | COC[C@H]1CCN1c1cc(C(=O)Nc2nnc(-n3nccc3C)s2)oc(=O)c1OC [Compound 194, (R)-3-methoxy-4-(2-(methoxymethyl)azetidin-1-yl)-N-(5-(5-methyl-1H-pyrazol-1-yl)-1,3,4-thiadiazol-2-yl)-2-oxo-2H-pyran-6-carboxamide] |
| 20 to 60 | COc1c(N[C@@H](C)[C@@H](C)OC)cc(C(=O)Nc2nnc(-n3nccc3C)s2)oc1=O [Compound 207, 3-methoxy-4-(((2S,3R)-3-methoxybutan-2-yl)amino)-N-(5-(5-methyl-1H-pyrazol-1-yl)-1,3,4-thiadiazol-2-yl)-2-oxo-2H-pyran-6-carboxamide] |
| < 5 | COC[C@H](Nc1cc(C(=O)Nc2nnc(-c3c(Cl)ccn3C)s2)oc(=O)c1OC)c1ccccc1 [Compound 213, (R)-N-(5-(3-chloro-1-methyl-1H-pyrrol-2-yl)-1,3,4-thiadiazol-2-yl)-3-methoxy-4-((2-methoxy-1-phenylethyl)amino)-2-oxo-2H-pyran-6-carboxamide] |
| < 5 | COC[C@@H](c1ccccc1)N1CCOc2c1cc(C(=O)Nc1nnc(-n3nccc3C)s1)oc2=O [Compound 227, (R)-1-(2-methoxy-1-phenylethyl)-N-(5-(5-methyl-1H-pyrazol-1-yl)-1,3,4-thiadiazol-2-yl)-5-oxo-1,2,3,5-tetrahydropyrano[3,4-b][1,4]oxazine-7-carboxamide] |
| 5 to 20 | COc1c(NC2CCC23COC3)cc(C(=O)Nc2nnc(-n3nccc3C)s2)oc1=O (racemic) [Rac-56, 4-((2-oxaspiro[3.3]heptan-5-yl)amino)-3-methoxy-N-(5-(5-methyl-1H-pyrazol-1-yl)-1,3,4-thiadiazol-2-yl)-2-oxo-2H-pyran-6-carboxamide] |
| 5 to 20 | COc1c(NCC2(OC)CC2)cc(C(=O)Nc2nnc(-n3nccc3C)s2)oc1=O [Compound 190] |
| 5 to 20 | COc1c(N2CCC[C@H]2CC#N)cc(C(=O)Nc2nnc(-n3nccc3C)s2)oc1=O [Compound 175, (S)-4-(2-(cyanomethyl)pyrrolidin-1-yl)-3-methoxy-N-(5-(5-methyl-1H-pyrazol-1-yl)-1,3,4-thiadiazol-2-yl)-2-oxo-2H-pyran-6-carboxamide] |
| < 5 | Nc1ccnn1-c1nnc(NC(=O)c2cc(NC34CC(C3)C4)c(OCCO)c(=O)o2)s1 [Compound 177, N-(5-(5-amino-1H-pyrazol-1-yl)-1,3,4-thiadiazol-2-yl)-4-(bicyclo[1.1.1]pentan-1-ylamino)-3-(2-hydroxyethoxy)-2-oxo-2H-pyran-6-carboxamide] |
